Earlier results as cited in US11857553B2, “Chromium containing compositions for improving health and fitness” (NUTRITION 21, LLC, priority 2016, dated 2024).

Tests used:
chromium absorption = conditions: orally administered CrCl3
[1] = rats, several thousand times the upper limit of the ESADDI for chromium for humans

Molecule | effect on chromium absorption (chromium absorption) | toxicity [1]
CC(=O)Oc1ccccc1C(=O)O [aspirin] | facilitate chromium absorption | –
[Cl][Cr]([Cl])[Cl] [chromium chloride] | – | without toxic effects
COc1ccc2c(c1)c(CC(=O)O)c(C)n2C(=O)c1ccc(Cl)cc1 [indomethacin] | facilitate chromium absorption | –
chromium picolinate | – | without toxic effects
